# US20230357708A1, “BI[…] PARA-HYDROXYBENZOIC ACID FROM METHANOL AND METHANE” (The Board of Trustees of the Leland Stanford Junior …, priority 2020, published 2023)
# Experiments:
# [1] = tested on: M. alcahphilum 20Z strain; test: 4HBA toxicity test, streaks on plates with horizontal 4HBA-gradient; type: cell-based, Methylomicrobium alcaliphilum; conditions: background-strain streaks, 4HBA-gradient 0-10 mM, pH 8.9
# Protocol: (§1) Fast growers were mutants with changed 4HBA-operon sequence. Fast-growing mutant #1 produced some 4HBA. […] The toxic conditions in turn favoured re-arrangement and/or point mutations of the plasmid. Streaks of the transconjugants on solid medium without methanol, grew comparatively well The solid medium was supplemented with nutrient broth, NMS2.1kan and MeOH. Toxicity tests with varying 4HBA concentrations was performed.
# [2] = tested on: M. buryatense 5GB1 (5G) strain; test: as above; type: cell-based, Methylotuvimicrobium buryatense; conditions: background-strain streaks, 4HBA-gradient 0-10 mM, pH 8.9
# Protocol: as §1
structure (smiles),measurement,setting,value
"O=C(O)c1ccc(O)cc1 [4HBA, para-hydroxybenzoic acid]",effect of 4HBA on growth,[1],significant inhibitory effect
same,effect of 4HBA on growth,[2],significant inhibitory effect
same,effect of 4HBA on growth compared with the M. alcahphilum 20Z strain,[2],more severely affected
